According to ChEMBL document CHEMBL1201862, “PubChem BioAssay data set” (2004):
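Cells were grown in 96-well plates and exposed to each compound for 48 hours at five concentrations; endpoints were interpolated linearly between bracketing concentrations, or set to the highest concentration if not reached. Abbreviation: GI50, concentration required for 50% inhibition of growth.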 Active and inactive are the calls of the source. Rule as the data show it: active = GI50 up to about 1.1 µM and inactive = higher.

Tests used:
Assay in all cases: growth of human tumour cells (NCI), 48 h
786-0 = system: 786-0
A498 = system: A498
A549 = system: A549
ACHN = system: ACHN
BT-549 = system: BT-549
CAKI-1 = system: CAKI-1
CCRF-CEM = system: CCRF-CEM
COLO 205 = system: COLO 205
DU-145 = system: DU-145
EKVX = system: EKVX
HCC 2998 = system: HCC 2998
HCT-116 = system: HCT-116
HCT-15 = system: HCT-15
HL-60 = system: HL-60
HOP-62 = system: HOP-62
HOP-92 = system: HOP-92
HT-29 = system: HT-29
Hs-578T = system: Hs-578T
IGROV-1 = system: IGROV-1
KM12 = system: KM12
LOX IMVI = system: LOX IMVI
M14 = system: M14
MCF7 = system: MCF7
MDA-MB-231 = system: MDA-MB-231
MDA-MB-435 = system: MDA-MB-435
MDA-N = system: MDA-N
MOLT-4 = system: MOLT-4
Malme-3M = system: Malme-3M
NCI-H226 = system: NCI-H226
NCI-H23 = system: NCI-H23
NCI-H460 = system: NCI-H460
NCI-H522 = system: NCI-H522
NCI/ADR-RES = system: NCI/ADR-RES
OVCAR-3 = system: OVCAR-3
OVCAR-4 = system: OVCAR-4
OVCAR-5 = system: OVCAR-5
OVCAR-8 = system: OVCAR-8
PC-3 = system: PC-3
RPMI-8226 = system: RPMI-8226
RXF 393 = system: RXF 393
SF-268 = system: SF-268
SF-295 = system: SF-295
SF-539 = system: SF-539
SK-MEL-28 = system: SK-MEL-28
SK-MEL-2 = system: SK-MEL-2
SK-MEL-5 = system: SK-MEL-5
SK-OV-3 = system: SK-OV-3
SN12C = system: SN12C
SNB-19 = system: SNB-19
SR = system: SR
SW-620 = system: SW-620
T47D = system: T47D
TK-10 = system: TK-10
U-251 = system: U-251
UACC-257 = system: UACC-257
UACC-62 = system: UACC-62
UO-31 = system: UO-31
K562 = system: K562
SNB-75 = system: SNB-75

C[C@H]1/C(=C/C(=O)OCCN(C)C)CC[C@H]2[C@H]1C(=O)C[C@H]1C(C)(C)[C@@H](O)CC[C@]21C
GI50 (786-0): > 100 µM (inactive)
GI50 (A498): > 100 µM (inactive)
GI50 (A549): > 100 µM (inactive)
GI50 (ACHN): > 100 µM (inactive)
GI50 (BT-549): > 100 µM (inactive)
GI50 (CAKI-1): > 100 µM (inactive)
GI50 (CCRF-CEM): > 100 µM (inactive)
GI50 (COLO 205): > 100 µM (inactive)
GI50 (DU-145): > 100 µM (inactive)
GI50 (EKVX): > 100 µM (inactive)
GI50 (HCC 2998): > 100 µM (inactive)
GI50 (HCT-116): > 100 µM (inactive)
GI50 (HCT-15): > 100 µM
GI50 (HL-60): > 100 µM (inactive)
GI50 (HOP-62): > 100 µM (inactive)
GI50 (HOP-92): > 100 µM (inactive)
GI50 (HT-29): > 100 µM (inactive)
GI50 (Hs-578T): > 100 µM (inactive)
GI50 (IGROV-1): > 100 µM (inactive)
GI50 (KM12): > 100 µM (inactive)
GI50 (LOX IMVI): > 100 µM (inactive)
GI50 (M14): > 100 µM (inactive)
GI50 (MCF7): > 100 µM (inactive)
GI50 (MDA-MB-231): > 100 µM (inactive)
GI50 (MDA-MB-435): > 100 µM (inactive)
GI50 (MDA-N): > 100 µM (inactive)
GI50 (MOLT-4): > 100 µM (inactive)
GI50 (Malme-3M): > 100 µM (inactive)
GI50 (NCI-H226): 22.5 µM (inactive)
GI50 (NCI-H23): > 100 µM (inactive)
GI50 (NCI-H460): > 100 µM (inactive)
GI50 (NCI-H522): > 100 µM (inactive)
GI50 (NCI/ADR-RES): > 100 µM (inactive)
GI50 (OVCAR-3): > 100 µM (inactive)
GI50 (OVCAR-4): > 100 µM (inactive)
GI50 (OVCAR-5): > 100 µM (inactive)
GI50 (OVCAR-8): > 100 µM (inactive)
GI50 (PC-3): > 100 µM (inactive)
GI50 (RPMI-8226): > 100 µM (inactive)
GI50 (RXF 393): > 100 µM (inactive)
GI50 (SF-268): > 100 µM (inactive)
GI50 (SF-295): > 100 µM (inactive)
GI50 (SF-539): > 100 µM (inactive)
GI50 (SK-MEL-28): > 100 µM (inactive)
GI50 (SK-MEL-2): > 100 µM (inactive)
GI50 (SK-MEL-5): > 100 µM (inactive)
GI50 (SK-OV-3): > 100 µM (inactive)
GI50 (SN12C): > 100 µM (inactive)
GI50 (SNB-19): > 100 µM (inactive)
GI50 (SR): > 100 µM (inactive)
GI50 (SW-620): > 100 µM (inactive)
GI50 (T47D): > 100 µM (inactive)
GI50 (TK-10): > 100 µM (inactive)
GI50 (U-251): > 100 µM (inactive)
GI50 (UACC-257): > 100 µM (inactive)
GI50 (UACC-62): > 100 µM (inactive)
GI50 (UO-31): > 100 µM (inactive)

Nc1ccc(Oc2ccc(C3(c4ccc(Oc5ccc(N)c(O)c5)cc4)C4CC5CC(C4)CC3C5)cc2)cc1O
GI50 (786-0): 1.82 µM (inactive)
GI50 (A498): 5.74 µM (inactive)
GI50 (A549): 1.81 µM (inactive)
GI50 (ACHN): 1.82 µM (inactive)
GI50 (BT-549): 1.66 µM (inactive)
GI50 (CAKI-1): 2.47 µM (inactive)
GI50 (CCRF-CEM): 2.82 µM (inactive)
GI50 (COLO 205): 0.484 µM (active)
GI50 (DU-145): 1.82 µM (inactive)
GI50 (EKVX): 2.2 µM (inactive)
GI50 (HCC 2998): 1.65 µM (inactive)
GI50 (HCT-116): 1.5 µM (inactive)
GI50 (HCT-15): 1.73 µM
GI50 (HL-60): 2.11 µM (inactive)
GI50 (HOP-62): 2.5 µM (inactive)
GI50 (HOP-92): 2.92 µM (inactive)
GI50 (HT-29): 1.64 µM (inactive)
GI50 (Hs-578T): 2.24 µM (inactive)
GI50 (IGROV-1): 1.75 µM (inactive)
GI50 (K562): 2.04 µM (inactive)
GI50 (KM12): 1.91 µM (inactive)
GI50 (LOX IMVI): 1.81 µM (inactive)
GI50 (M14): 1.71 µM (inactive)
GI50 (MCF7): 1.67 µM (inactive)
GI50 (MDA-MB-231): 1.82 µM (inactive)
GI50 (MDA-MB-435): 2.02 µM (inactive)
GI50 (MDA-N): 2.03 µM (inactive)
GI50 (MOLT-4): 1.66 µM (inactive)
GI50 (Malme-3M): 2.3 µM (inactive)
GI50 (NCI-H226): 1.83 µM (inactive)
GI50 (NCI-H23): 1.91 µM (inactive)
GI50 (NCI-H460): 1.73 µM (inactive)
GI50 (NCI-H522): 1.73 µM (inactive)
GI50 (NCI/ADR-RES): 2.35 µM (inactive)
GI50 (OVCAR-3): 1.56 µM (inactive)
GI50 (OVCAR-4): 2.43 µM (inactive)
GI50 (OVCAR-5): 2.35 µM (inactive)
GI50 (OVCAR-8): 1.7 µM (inactive)
GI50 (PC-3): 1.68 µM (inactive)
GI50 (RPMI-8226): 1.97 µM (inactive)
GI50 (RXF 393): 1.73 µM (inactive)
GI50 (SF-268): 1.53 µM (inactive)
GI50 (SF-295): 3.06 µM (inactive)
GI50 (SF-539): 1.12 µM (active)
GI50 (SK-MEL-28): 1.84 µM (inactive)
GI50 (SK-MEL-2): 1.86 µM (inactive)
GI50 (SK-MEL-5): 1.58 µM (inactive)
GI50 (SK-OV-3): 2.45 µM (inactive)
GI50 (SN12C): 1.9 µM (inactive)
GI50 (SNB-19): 2.4 µM (inactive)
GI50 (SR): 1.17 µM (inactive)
GI50 (SW-620): 1.77 µM (inactive)
GI50 (T47D): 3.27 µM (inactive)
GI50 (TK-10): 2.12 µM (inactive)
GI50 (U-251): 1.7 µM (inactive)
GI50 (UACC-257): 2.12 µM (inactive)
GI50 (UACC-62): 2.69 µM (inactive)
GI50 (UO-31): 1.92 µM (inactive)

COC1CC(C)(NC(=O)C(F)(F)F)C2OC(c3ccccc3)OCC2O1 (configuration not stated)
GI50 (786-0): > 100 µM (inactive)
GI50 (A498): > 100 µM (inactive)
GI50 (A549): > 100 µM (inactive)
GI50 (ACHN): > 100 µM (inactive)
GI50 (BT-549): > 100 µM (inactive)
GI50 (CAKI-1): > 100 µM (inactive)
GI50 (CCRF-CEM): > 100 µM (inactive)
GI50 (COLO 205): > 100 µM (inactive)
GI50 (DU-145): > 100 µM (inactive)
GI50 (EKVX): > 100 µM (inactive)
GI50 (HCT-116): > 100 µM (inactive)
GI50 (HCT-15): > 100 µM
GI50 (HL-60): > 100 µM (inactive)
GI50 (HOP-62): > 100 µM (inactive)
GI50 (HOP-92): > 100 µM (inactive)
GI50 (HT-29): 47 µM (inactive)
GI50 (Hs-578T): > 100 µM (inactive)
GI50 (IGROV-1): > 100 µM (inactive)
GI50 (K562): > 100 µM (inactive)
GI50 (KM12): > 100 µM (inactive)
GI50 (LOX IMVI): > 100 µM (inactive)
GI50 (M14): > 100 µM (inactive)
GI50 (MCF7): > 100 µM (inactive)
GI50 (MDA-MB-231): > 100 µM (inactive)
GI50 (MDA-MB-435): > 100 µM (inactive)
GI50 (MDA-N): > 100 µM (inactive)
GI50 (MOLT-4): 47.3 µM (inactive)
GI50 (Malme-3M): > 100 µM (inactive)
GI50 (NCI-H226): > 100 µM (inactive)
GI50 (NCI-H23): > 100 µM (inactive)
GI50 (NCI-H460): > 100 µM (inactive)
GI50 (NCI-H522): > 100 µM (inactive)
GI50 (NCI/ADR-RES): > 100 µM (inactive)
GI50 (OVCAR-3): > 100 µM (inactive)
GI50 (OVCAR-4): > 100 µM (inactive)
GI50 (OVCAR-5): > 100 µM (inactive)
GI50 (OVCAR-8): > 100 µM (inactive)
GI50 (PC-3): > 100 µM (inactive)
GI50 (RPMI-8226): > 100 µM (inactive)
GI50 (RXF 393): > 100 µM (inactive)
GI50 (SF-268): > 100 µM (inactive)
GI50 (SF-295): > 100 µM (inactive)
GI50 (SF-539): > 100 µM (inactive)
GI50 (SK-MEL-28): > 100 µM (inactive)
GI50 (SK-MEL-5): > 100 µM (inactive)
GI50 (SK-OV-3): > 100 µM (inactive)
GI50 (SN12C): > 100 µM (inactive)
GI50 (SNB-19): > 100 µM (inactive)
GI50 (SNB-75): > 100 µM (inactive)
GI50 (SR): > 100 µM (inactive)
GI50 (SW-620): > 100 µM (inactive)
GI50 (T47D): > 100 µM (inactive)
GI50 (TK-10): > 100 µM (inactive)
GI50 (U-251): > 100 µM (inactive)
GI50 (UACC-257): > 100 µM (inactive)
GI50 (UACC-62): > 100 µM (inactive)
GI50 (UO-31): > 100 µM (inactive)
